The source made the active and inactive calls. The calls are words filed in the database; no cut-off is given here.
Assays:
Assay type in all cases: functional, cell-based
[1] = molecular target: T1, Taste receptor type 2 member 10 (Homo sapiens) (UniProt Q9NYW0); experiment: Agonist activity at recombinant human N-terminal rat ST3 receptor-fused TAS2R10 expressed in HEK293T cells co-expressing Galpha16gust44 assessed as increase in intracellular calcium level at 100 uM by FLIPR assay
T1 sequence (whole entry): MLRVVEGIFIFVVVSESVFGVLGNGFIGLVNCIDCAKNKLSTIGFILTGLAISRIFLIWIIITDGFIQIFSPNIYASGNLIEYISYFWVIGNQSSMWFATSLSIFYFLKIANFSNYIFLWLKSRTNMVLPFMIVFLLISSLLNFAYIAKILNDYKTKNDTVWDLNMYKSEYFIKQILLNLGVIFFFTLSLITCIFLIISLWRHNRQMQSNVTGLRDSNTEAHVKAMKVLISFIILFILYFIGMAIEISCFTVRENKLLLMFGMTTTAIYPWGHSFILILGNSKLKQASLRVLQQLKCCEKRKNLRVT

[2] = molecular target: T2, Taste receptor type 2 member 46 (Homo sapiens) (UniProt P59540); experiment: Antagonist activity at recombinant human N-terminal rat ST3 receptor-fused TAS2R46 expressed in HEK293T cells co-expressing Galpha16gust44 assessed as inhibition of picrotoxinin-induced intracellular calcium level at 100 uM by FLIPR assay
T2 sequence (whole entry): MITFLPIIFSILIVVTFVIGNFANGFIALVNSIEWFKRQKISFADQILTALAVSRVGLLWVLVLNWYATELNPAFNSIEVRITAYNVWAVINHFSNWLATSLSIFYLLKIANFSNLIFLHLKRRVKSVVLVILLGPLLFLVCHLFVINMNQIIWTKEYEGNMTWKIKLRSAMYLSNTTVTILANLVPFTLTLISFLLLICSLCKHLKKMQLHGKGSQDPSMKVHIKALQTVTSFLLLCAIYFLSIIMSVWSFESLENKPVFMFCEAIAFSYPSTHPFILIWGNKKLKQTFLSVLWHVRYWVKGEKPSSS

[3] = molecular target: Taste receptor type 2 member 40 (Homo sapiens) (UniProt P59535); experiment: Antagonist activity at recombinant human N-terminal rat ST3 receptor-fused TAS2R40 expressed in HEK293T cells co-expressing Galpha16gust44 assessed as inhibition of cohumulone-induced intracellular calcium level at 100 uM by FLIPR assay
Taste receptor type 2 member 40 (Homo sapiens), sequence (P59535 whole entry, the tested form may be a part): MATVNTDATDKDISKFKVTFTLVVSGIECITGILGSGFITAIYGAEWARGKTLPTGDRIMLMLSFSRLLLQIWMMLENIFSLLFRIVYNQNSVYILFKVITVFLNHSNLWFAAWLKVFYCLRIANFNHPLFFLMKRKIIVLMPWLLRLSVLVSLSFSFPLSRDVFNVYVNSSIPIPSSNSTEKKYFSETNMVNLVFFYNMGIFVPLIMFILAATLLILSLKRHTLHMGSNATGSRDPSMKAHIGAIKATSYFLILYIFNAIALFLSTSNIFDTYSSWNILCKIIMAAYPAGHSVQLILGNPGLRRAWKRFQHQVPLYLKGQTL

[4] = molecular target: T3, Taste receptor type 2 member 3 (Homo sapiens) (UniProt Q9NYW6); experiment: Antagonist activity at recombinant human N-terminal rat ST3 receptor-fused TAS2R3 expressed in HEK293T cells co-expressing Galpha16gust44 assessed as inhibition of chloroquine-induced increase in intracellular calcium level at 100 uM by FLIPR assay
T3 sequence (whole entry): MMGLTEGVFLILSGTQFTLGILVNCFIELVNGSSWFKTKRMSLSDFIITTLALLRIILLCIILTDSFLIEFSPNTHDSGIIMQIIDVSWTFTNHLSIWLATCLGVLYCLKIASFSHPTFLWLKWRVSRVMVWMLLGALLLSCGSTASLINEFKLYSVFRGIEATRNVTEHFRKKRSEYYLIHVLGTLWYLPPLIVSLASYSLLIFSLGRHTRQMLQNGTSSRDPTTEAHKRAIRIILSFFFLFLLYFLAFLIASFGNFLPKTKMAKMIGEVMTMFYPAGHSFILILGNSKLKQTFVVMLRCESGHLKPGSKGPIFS

[5] = molecular target: T4, Taste receptor type 2 member 9 (Homo sapiens) (UniProt Q9NYW1); experiment: Antagonist activity at recombinant human N-terminal rat ST3 receptor-fused TAS2R9 expressed in HEK293T cells co-expressing Galpha16gust44 assessed as inhibition of ofloxacin-induced increase in intracellular calcium level at 100 uM by FLIPR assay
T4 sequence (whole entry): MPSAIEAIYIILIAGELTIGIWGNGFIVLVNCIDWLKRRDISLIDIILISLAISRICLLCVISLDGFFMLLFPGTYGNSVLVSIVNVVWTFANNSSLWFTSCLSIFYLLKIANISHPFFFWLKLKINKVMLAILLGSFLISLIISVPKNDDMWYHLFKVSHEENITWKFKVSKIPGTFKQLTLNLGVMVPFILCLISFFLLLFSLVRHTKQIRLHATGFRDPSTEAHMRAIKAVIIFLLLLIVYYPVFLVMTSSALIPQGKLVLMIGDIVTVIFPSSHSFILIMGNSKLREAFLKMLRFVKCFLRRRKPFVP

[6] = molecular target: T5, Taste receptor type 2 member 16 (Homo sapiens) (UniProt Q9NYV7); experiment: Antagonist activity at recombinant human N-terminal rat ST3 receptor-fused TAS2R16 expressed in HEK293T cells co-expressing Galpha16gust44 assessed as inhibition of D-salicin-induced increase in intracellular calcium level at 100 uM by FLIPR assay
T5 sequence (whole entry): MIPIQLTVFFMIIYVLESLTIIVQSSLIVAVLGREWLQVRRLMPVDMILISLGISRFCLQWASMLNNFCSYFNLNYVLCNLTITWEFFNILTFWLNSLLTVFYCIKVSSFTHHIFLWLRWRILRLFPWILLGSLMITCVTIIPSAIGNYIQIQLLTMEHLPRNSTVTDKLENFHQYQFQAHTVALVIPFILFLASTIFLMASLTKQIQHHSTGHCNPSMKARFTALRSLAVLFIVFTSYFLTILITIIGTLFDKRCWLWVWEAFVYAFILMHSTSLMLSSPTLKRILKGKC

[7] = molecular target: T6, Taste receptor type 2 member 31 (Homo sapiens) (UniProt P59538); experiment: Antagonist activity at recombinant human N-terminal rat ST3 receptor-fused TAS2R44 expressed in HEK293T cells co-expressing Galpha16gust44 assessed as inhibition of aristolochic acid-induced intracellular calcium level at 100 uM by FLIPR assay
T6 sequence (whole entry): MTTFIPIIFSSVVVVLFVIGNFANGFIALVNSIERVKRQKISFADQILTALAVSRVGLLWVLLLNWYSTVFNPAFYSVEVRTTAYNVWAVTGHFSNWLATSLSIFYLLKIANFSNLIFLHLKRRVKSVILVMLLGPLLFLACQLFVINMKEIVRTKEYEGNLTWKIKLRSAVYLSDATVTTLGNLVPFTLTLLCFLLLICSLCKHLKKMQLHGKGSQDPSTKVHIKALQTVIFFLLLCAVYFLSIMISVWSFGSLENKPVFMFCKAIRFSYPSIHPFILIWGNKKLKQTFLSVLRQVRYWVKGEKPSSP

Row | SMILES | Activity [1] | inhibition [2] | inhibition [3] | inhibition [4] | inhibition [5] | inhibition [6] | inhibition [7]
1 | C/C1=C\C[C@H](O)/C(C)=C/[C@H]2OC(=O)[C@@H](C)[C@@H]2CC1 | Active | Active | Active | inactive | inactive | inactive | inactive
2 | C/C1=C\C[C@H](O)[C@@H](C)C[C@H]2OC(=O)[C@@H](C)[C@@H]2CC1 | Active | Active | Active | inactive | inactive | inactive | Active

— ChEMBL document CHEMBL4418912, “Methods of identifying antagonists of the hTAS2R46 bitter taste receptor” (2014)
